The text below walks through data of patent publication US11311043B2, “Preparation of glucan-based shell-core structure carrier material and its application thereof” (Jiangnan University, priority 2018, dated 2022).

Data set [1] concerns Intestinal cell. As to the kind of experiment: Intestinal cell experiment: hydrogen peroxide irritation, cell activity by MTT method. The data set is classed as cell-based. The conditions noted are these: 2 mM hydrogen peroxide for 2 h, then cultured 4 h. On the procedure: Cell experiment: Intestinal cell experiment is performed on a carrying complex. 100 μL of a carrying material-nutritional factor complex dissolved solution is added to a cell culture solution, 2 mM of a hydrogen peroxide solution is added for irritating cells for 2 h, and the cells are continued to be cultured for 4 h. Cell activity is detected by an MTT method.
(In general: Tetrazolium dyes change colour on reduction, which living cells bring about.)

The nature of data set [2]: Biological stability by oxidation rate POV (potassium thiocyanate peroxide value method). It is filed as physicochemical. The conditions noted are these: conjugated linoleic acid carried; stability from maximum peroxide value (POV). On the procedure: To better realize the present invention, biological stability is characterized by determining the oxidation rate POV (peroxide value) by applying a potassium thiocyanate POV determining method. POV is calculated through the formula below: […]
c and c0 are the mass of iron in a test sample and a blank sample; m is the mass of CLA; 2 is a conversion factor; and 55.84 is the relative atomic mass of iron. The degree of oxidation of pure nutritional factors serves as control, and the maximum values of the amount of peroxide (POV) in the control and the material are calculated and compared. POV is the amount of peroxide in a first stage product obtained after fat oxidation. Because it cannot be excluded that a small amount of peroxide continues to decompose into small molecular substances under an oxidizing environment, the stability is characterized by: Stability[…](100−100 g CLA maximum value of the amount of peroxide generated by oxidation)/100*100%.

With `COC1=C(OC)C(=O)C(C/C=C(\C)CC/C=C(\C)CC/C=C(\C)CC/C=C(\C)CC/C=C(\C)CC/C=C(\C)CC/C=C(\C)CC/C=C(\C)CC/C=C(\C)CCC=C(C)C)=C(C)C1=O` [Coenzyme Q10, coenzyme Q10], the Cell activity % in data set [1] (1 μg/ml) amounted to 92 ± 3.4%; in data set [1] (10 μg/ml) it was 97 ± 2.6%.

As to conjugated linoleic acid [Control 1], the Biological stability in data set [2] is 58.2%.
